Values quoted from earlier work, collected in US8882743B2, “Apparatus and method for application of a pharmaceutical to the tympanic membrane for photodynamic laser myringotomy” (priority 2006, dated 2014).

Tested on: tympanic membrane
Conditions: lance myringotomy with concomitant mitomycin-C versus myringotomy without mitomycin-C

## CO[C@@]12[C@H](COC(N)=O)C3=C(C(=O)C(C)=C(N)C3=O)N1C[C@@H]1N[C@@H]12 [mitomycin-C]
  time required for closure of the fistulae formed: statistically significant increase
